Patent US20250208133A1, “SENESCENT CELL SURFACE MARKERS” (SENS RESEARCH FOUNDATION, priority 2022, published 2025)

What was measured:
Type in all cases: cell-based, human
[1] = test system: non-senescent (NS) IMR-90 cells; assay: xCELLigence RTCA impedance viability assay, non-senescent cells; conditions: 48 hours of treatment with 1 μM
senescent IMR-90 cells = assay: xCELLigence RTCA impedance viability assay, senescent cells
Experimental: (§1) Human IMR-90 fibroblasts (ATCC, USA) were treated with 300 nM of doxorubicin hydrochloride (Millipore Sigma, USA; Cat #504042) in DMEM complete media for 24 hours or ionizing radiation (10 Gy X-ray) and maintained in culture. Primary human endothelial cells were treated with 250 nM of doxorubicin in promo cell basal medium supplemented with Growth Medium MV 2 Supplement Pack for 24 hours and maintained in culture. Senescent cells were used 7-13 days following treatment.
For measurement of background values, 50 μl of complete medium was added to E-Plates 96 (Agilent). Cells were seeded in a total of 200 μl of medium per well at a density of 10,000 cells per well. Cell attachment was monitored using the RTCA MP (Agilent) instrument and the RTCA software (Agilent). Media was replaced with media containing either DMSO, vacuolin-1 or apilimod. Cells treated with 0.2% Triton X-100 was used as a 100% dead cell positive control for cytotoxicity assays. After drug addition, impedance measurements were recorded every 15 minutes. All experiments were performed in at least 5 replicates for each dose. Changes in impedance were expressed as a cell index (CI) value, which derives from relative impedance changes corresponding to cellular coverage of the electrode sensors, normalized to baseline impedance values with medium only. To analyze the acquired data, CI values were exported, and percentage of attached cell surface was calculated in relation to positive controls and DMSO-treated cells.
Senescent cells are known to employ several mechanisms to increase their survival. For example, increased expression of the pro-survival BCL-family proteins has been widely studied. In fact, BCL antagonism has been the basis of many senolytic drugs (see, e.g., Zhu, et al., Aging Cell. 2016 June; 15(3):428-35). Vacuolin-1 was used to determine if lysosomal exocytosis is a mechanism for senescent cell survival. Vacuolin-1 is a potent inhibitor of Phosphatidylinositol-3-phosphate 5-kinase type III (PIKfyve), which is a key player in lysosomal exocytosis allowing lysosomes to fuse with the plasma membrane. The viability assay was performed in senescent IMR-90 cells using xCELLigence Real-Time Cell Analysis (RTCA) system that uses label-free cellular impedance to monitor cell health and viability over time.

[2] = Crystal violet staining cell viability, non-senescent cells; conditions: human, non-senescent IMR-90 fibroblasts, non-senescent cells, read-out: cell viability, quantification of adherent cells
Experimental: (§2) Cell viability after 48 h of apilimod (1 μM) or vacuolin-1 (1 μM) treatment was estimated by crystal violet. Cells in 6-well cell culture plates (Greiner Bio-One; Cat #657160) were washed twice with PBS, incubated with 4% paraformaldehyde for 15 minutes at room temperature, then stained with 0.25% crystal violet for 10 minutes. Cells were washed with deionized water and imaged, 3 images per well.
(§3) Apilimod is a clinical PIKfyve inhibitor. Apilimod was used to further validate the senolytic effects of PIKfyve inhibitors. […] To further characterize the potent cytotoxic effect of apilimod on non-senescent versus senescent cells, IMR-90 fibroblasts were treated with 1 μM of apilimod. […] Of note, the decrease in viable apilimod-treated non-senescent cells after 48 hours of treatment is likely in part due to a decrease in proliferation rather than viability of apilimod-treated cells.

[3] = test system: non-senescent IMR-90 fibroblasts; assay: as above; conditions: 1 μM, 48 hours
Experimental: as §2, §3

[4] = test system: senescent IMR-90 fibroblasts; assay: Crystal violet staining cell viability, senescent cells; conditions: 48 hours
Experimental: as §1, §2, §3

| Compound | mean normalized cell index [1] | mean normalized cell index (senescent IMR-90 cells; senescent cells, 48 hours of treatment with 1 μM) | selective killing of senescent cells by blocking lysosomal exocytosis (senescent IMR-90 cells; senescent vs NS IMR-90 cells, dose response) | senescent cell survival (senescent IMR-90 cells; 48 hours of treatment with 1 μM) | senescent cell survival (senescent IMR-90 cells; 48 hours of treatment with 5 μM) | senescent cell viability (senescent IMR-90 cells; dose response) | viability at 48 h, 1 µM [2] | non-senescent cell viability, light microscopy of crystal violet-stained cells [3] | viability of senescent cells, light microscopy of crystal violet-stained cells ([4]; 1 μM) | viability at 1 µM ([4]; Homo sapiens, IMR-90, senescent condition, read-out: viable cells, quantification of adherent cells) |
| --- | --- | --- | --- | --- | --- | --- | --- | --- | --- | --- |
| Ic1cccc(/C=N/Nc2nc(N3CCOCC3)nc(N(c3ccccc3)c3ccccc3)n2)c1 [vacuolin-1] | 1.2 | 0.4 | selectively killed senescent IMR-90 cells in a dose-dependent manner |  |  |  |  |  |  |  |
| Cc1cccc(/C=N/Nc2cc(N3CCOCC3)nc(OCCc3ccccn3)n2)c1 [apilimod] |  |  |  | No senescent cells survived | No senescent cells survived | dose-dependent declines in senescent cell viability | 92% | no effect | significant decrease | 17% |
